# In patent publication US20240398737A1, “FUNCTIONALIZED LONG-CHAIN HYDROCARBON MONO- AND DI-CARBOXYLIC ACIDS AND DERIVATIVES THEREOF, AND THEIR USE FOR THE PREVENTION OR TREATMENT OF DISEASE” (Espervita Therapeutics, Inc., priority 2021, published 2024):
# What was measured:
# [1] = Synthesis of CoA derivatives in rat liver microsomes (LCMS detection); assay type: in vitro ADME; conditions: 1 mM substrate, 30 min sample
# Description: Reaction products were eluted using the gradient shown below: […]
# Formation and detection of the Co-A derivatives of Compounds 1-32, 1-61, I-1 or III-1 in rat liver microsomes: 1 mM of each compound (Compounds I-32, I-61, I-1 or III-1) or palmitic acid (control) were used as substrate in the rat microsomal preparation for 0 and 30 min and extracted as described above. […] Further confirmation was obtained by exposing the compound to a collision energy causing the characteristic neutral loss of 3′-phosphonucleoside diphosphate (507 Da) producing the fragment ion 499.3 m/z. There was no evidence of the CoA derivative in the time 0 min sample.
# [2] = test system: C57BL6/J mice; assay: Indirect calorimetry (CLAMS) in fructose-fed C57BL6/J mice; assay type: in vivo, mouse; conditions: 100 mg/kg oral gavage
# Description: Materials and Methods. All experiments were carried out using the methods approved by the Animal Research Ethics Board at McMaster University, Canada (Steinberg Laboratory Animal Utilization Protocol #16-12-42). 8-Week-old male C57BL6/J mice were ordered from Jackson Laboratory, Bar Harbor, Maine and housed at the McMaster University Central Animal Facility. Animals were housed in the ventilated cages racks system and provided with ad libitum access to normal chow diet (Teklad 8640 22/5 rodent diet, procured from Envigo, Mississauga ON) and water supplemented with fructose (30% weight/volume, made fresh weekly) for at least 2-weeks before testing commenced. A 12-hour light/dark cycle and a temperature of 23±2° C. were maintained throughout the animal housing. Data were analyzed using one-way analyses of variance followed by a Tukey's multiple comparisons post hoc test where appropriate. All statistical analysis was carried out using GraphPad Prism 8 software. A p-value of less than or equal 0.05 was considered significant.
# Experimental and Results. Respiratory Exchange Ratio (RER) and related metabolic parameters were measured using the Comprehensive Lab Animal Monitoring System (CLAMS, Columbus Instruments, Columbus, Ohio). Animals were placed in CLAMS and allowed ad libitum access to normal chow diet and water supplemented with fructose (30% weight/volume) for at least 24 hours before the experiment began. At 5:30 p.m. chow diet was removed and water containing 30% fructose was replaced with normal tap water. Animals were fasted overnight until food and 30% fructose water were made accessible the next day at 7:30 a.m. (14 hours total). Animals were allowed to feed ad libitum for ˜2 hours. RER was monitored and those animals with RER values >1 were administered either vehicle (1.5% Carboxymethyl cellulose and 0.2% Tween 20) alone or vehicle containing Compound I-1 or Compound I-32 at a dose of 100 mg/kg via oral gavage. Animals remained in the metabolic cages and RER, activity level, locomotor activity, and food intake were monitored for 24 hours. Metabolic parameters were calculated using Oxymax software included with Comprehensive Lab Animal Monitoring System (CLAMS). RER was calculated as the […] given by the following equation: […]
# Locomotor activity was calculated as the total number of beam breaks in each cage over a 24-hour period. The heat (calorific value, CV) was calculated by the following equation: […]
SMILES,"Formation of the CoA derivative (LCMS detection, fragmentation confirmation) [1]",Duration of the RER reduction [2],Respiratory exchange ratio (RER) compared to vehicle treated group [2],Time to detection of the RER reduction after treatment [2]
"CC(C)(CCCCc1cccc(CCCCC(C)(C)C(=O)O)c1)C(=O)O [Compound I-32, 6-[3-(5-carboxy-5-methylhexyl)-phenyl]-2,2-dimethylhexanoic acid]",detected,6 h,significant reduction,≤ 1 h
"CC(C)(CCCCc1ccc(CCCCC(C)(C)C(=O)O)cc1)C(=O)O [Compound I-1, 6-[4-(5-carboxy-5-methylhexyl)-phenyl]-2,2-dimethylhexanoic acid]",detected,6 h,significant reduction,≤ 1 h
